Earlier results in US20180042936A1, “MAINTENANCE THERAPY USING TIANEPTINE” (GENOMIND, Inc., priority 2016, published 2018).
Read-outs that look alike come from different tables or passages of the source.

Columns and labels:
[1] = some individuals with treatment-resistant major depressive disorder and bipolar disorder
[2] = system: brain derived neurotrophic factor (BDNF); conditions: responders compared to non-responders

CNC1(c2ccccc2Cl)CCCCC1=O (racemic) [Ketamine, (RS)-2-(2-Chlorophenyl)-2-(methylamino)cyclohexanone]
time to anti-depression efficacy [1]: ≤ 1 h | plasma BDNF levels ([2]; 240 min post-infusion (Haile et al. 2014)): significantly increased | plasma BDNF levels ([2]; post-infusion of ketamine (Example 1)): increases plasma BDNF levels
